We go through 4 compounds from PMC12748266, “Testing antimicrobial peptides inhibiting protein synthesis in living E. coli and K. pneumoniae using bio-orthogonal non-canonical amino-acid tagging” (Frontiers in Microbiology, 2025).

Experiment [1] relates to K. pneumoniae ATCC 700603. The experiment can be described thus: microbe, parasite or virus in culture. The class given is cell-based, Klebsiella pneumoniae. The settings on record: for MIC: 18 h, 37 °C, mode of at least three experiments. Here is the method: […] […] Serially two-fold dilution (1:1) were performed across subsequent wells to a final volume of 50 μL. […] […] The plates were sealed with parafilm to minimize evaporation and incubated at 37 °C for 18 h. The minimum inhibitory concentration (MIC) was visually determined as the lowest peptide concentration in a well with no visible bacterial growth. Data are reported as the mode of at least three independent experiments.

For experiment [2], the system named is E. coli ATCC 25922. Description: Cell membrane permeabilization, propidium iodide flow cytometry. The class given is cell-based, Escherichia coli. The settings on record: for Membrane permeabilization (% PI +cells): compound at its MIC, 40 min, 5 × 10^6 CFU/mL, supplemented M9, mean of n = 3. Here is the method:
(§1) Membrane permeabilization of bacteria was then assessed by incubating bacteria at 37 °C, in a final volume of 1 mL, with varying concentrations of each peptide or antibiotic used for the BONCAT assay. 5 min before the ending of the selected incubation time (40 min), propidium iodide probe was added to the samples to a final concentration of 10 μg/mL before analysis using a flow cytometer. A positive control consisted of E. coli cells dehydrated with ethanol (as described above), while untreated cells were used as negative control. The fluorescence of untreated cells was used to establish the gating for positive PI-stained cells. Fixed bacterial cells, subjected to the click chemistry reaction to link the Alexa Fluor azide 488 probe, were analysed by flow cytometry and, among the gates-selected ones, only those that tested positive for Propidium Iodide, and thus permeabilized, were considered for the calculation of the mean fluorescence intensity (MFI) of the Alexa Fluor azide 488.
(§2) Samples were analyzed by an Attune NxT® (ThermoFisher) equipped with a blue laser (488 nm) and photomultiplier tubes (PMTs) BL1 (525/50) and BL3 (695/40) to collect fluorescence. All parameters were set in logarithmic scale and the signals were recorded as Area. Forward scattering (FSC) was set to 300 mV, side scattering (SSC) to 350 mV and thresholds to 0.2 for FSC and 0.5 for SSC. The compensation matrix was performed according to the tool software. Hierarchical gates and acquisition flow rate (200 μL/min) were set to avoid coincident events. The files were saved as FCS 3.1 and analysed by FCS Express De Novo software v7. Flow cytometry data are presented as means ± SD from three independent experiments (n = 3).
Background: A flow cytometer gives signals particle by particle.

The subject of experiment [3] is E. coli ATCC 25922. Description: microbe, parasite or virus in culture. The experiment is classed as cell-based, Escherichia coli. The settings on record: for MIC: 18 h, 37 °C, mode of at least three experiments. Here is the method: […] Each peptide, diluted at a starting concentration of 128 μM in supplemented M9 medium was added to the first column of wells of a 96-well round-bottom microplate (Sarstedt, Milan, Italy). Serially two-fold dilution (1:1) were performed across subsequent wells to a final volume of 50 μL. 50 μL of bacterial suspension (1 × 10^7 CFU/mL) were then added to each well, to a final bacterial concentration in each well to 5 × 10^6 CFU/mL per well. Untreated bacterial culture was used as growth control, while 100 μL of uninoculated supplemented M9 medium was used to verify the sterility of the medium. The plates were sealed with parafilm to minimize evaporation and incubated at 37 °C for 18 h. The minimum inhibitory concentration (MIC) was visually determined as the lowest peptide concentration in a well with no visible bacterial growth. Data are reported as the mode of at least three independent experiments.

In experiment [4] the test system is E. coli ATCC 25922. The experiment can be described thus: BONCAT: HPG incorporation into newly synthesized proteins, flow cytometry. The class given is cell-based, Escherichia coli. The conditions noted are these: compound at MIC; for Fluorescence Intensity (% of Control): 10 min pre-incubation then 30 min HPG, untreated = 100%, mean, n ≥ 3; for Decrease in fluorescence compared to untreated bacteria: 40 min total incubation (10 min + 30 min HPG). On the procedure: (§3) We used a modified protocol from [Lindivat et al. (2020)]. Briefly, overnight cultures of E. coli ATCC 25922 or K. pneumoniae ATCC 700603, prepared as described above, were diluted to a final concentration of 5×10^6 CFU/mL and allowed to adjust for 30 min at 37 °C. The culture was then incubated at 37 °C in the dark for 10 or 30 min in the presence or absence of each peptide or antibiotic at various concentrations, with a final volume of 1 mL. At this point, only in certain specified experimental assays, the compounds were removed from the supernatant by centrifugation (16,000 × g for 5 min) and bacteria were washed and resuspended in fresh supplemented M9 medium. Then, 32 μL of a 500 μM homopropargylglycine (HPG) solution were added to each sample, resulting in a final concentration of 16 μM in a finale volume of 1 mL. Also included in each assay were two untreated controls containing only bacteria and bacteria treated with 16 μM HPG alone, respectively. All samples were then incubated at 37 °C in the dark for 30 min. After incubation, samples were washed once with 1X filtered Phosphate Buffered Saline (PBS) (centrifuged at 16,000 x g for 5 min) and resuspended in PBS. After washing, samples were fixed with formaldehyde (Sigma Aldrich, USA) to a final concentration of 3% in 1 mL for 1 h at 25 °C. Subsequently, the samples were centrifuged at 16,000 x g for 5 min and resuspended in 1 mL of PBS. If not analysed immediately, the fixed samples were stored at 4 °C prior to performing the click chemistry reaction. Samples were centrifugated at 16,000 x g for 5 min and bacteria cells were dehydrated by ethanol that was added sequentially to achieve a final concentration of 50% (v/v) (3 min of incubation), 80% (v/v) (3 min of incubation), and 95% (v/v) (3 min of incubation). After dehydration, the samples were centrifugated (16,000 × g, 5 min) and resuspended in PBS. For cell analysis by SDS-PAGE, the following variations were implemented: bacterial cells were diluted in supplemented M9 medium to a final density of ~ 1 × 10^9 CFU/mL, and HPG was added to the samples at a final concentration of 160 μM. Bacteria were incubated with HPG for 0, 15, 30, 60, or 120 min at 37 °C in the dark.
(§4) The click reaction was carried out according to [Rostovtsev et al. (2002)]. 15 μL of a pre-mix solution (prepared as described above) were added to each sample containing fixed bacteria that had incorporated HPG (30 μL of pre-mix solution in case of samples prepared for SDS-PAGE analysis), resulting in the following final concentrations in each sample: 0.1 mM copper sulfate, 0.5 mM Tris (3-hydroxypropyltriazolylmethyl)amine (THPTA), and 2.5 μM Alexa Fluor azide 488. Additionally, 50 μL of freshly prepared 100 mM sodium ascorbate and 50 μL of 100 mM aminoguanidine were added (100 μL in case of samples prepared for SDS-PAGE analysis), bringing the final volume to 1 mL. The samples were gently inverted once to mix and incubated for 30 min in the dark at 25 °C. Finally, each sample was washed with PBS once (centrifuged at 16,000 × g for 5 min) and resuspended in 1 mL PBS.
An overnight culture of E. coli ATCC 25922, or of K. pneumoniae ATCC 700603, prepared as described above, was diluted to a final concentration of 5 × 10^6 CFU/mL and allowed to adjust for 30 min at 37 °C under shaking. Membrane permeabilization of bacteria was then assessed by incubating bacteria at 37 °C, in a final volume of 1 mL, with varying concentrations of each peptide or antibiotic used for the BONCAT assay. 5 min before the ending of the selected incubation time (40 min), propidium iodide probe was added to the samples to a final concentration of 10 μg/mL before analysis using a flow cytometer. A positive control consisted of E. coli cells dehydrated with ethanol (as described above), while untreated cells were used as negative control. The fluorescence of untreated cells was used to establish the gating for positive PI-stained cells. […]

Experiment [5] relates to K. pneumoniae ATCC 700603. Description: Cell membrane permeabilization, propidium iodide flow cytometry. The conditions noted are these: compound at its MIC, 40 min, 5 × 10^6 CFU/mL, supplemented M9; mean of n = 3. The class given is cell-based, Klebsiella pneumoniae. Here is the method:
as §1, with “An overnight culture of E. coli ATCC 25922, or of K. pneumoniae ATCC 700603, prepared as described above, was diluted to a final concentration of 5 × 10^6 CFU/mL and allowed to adjust for 30 min at 37 °C under shaking. Membrane” for “Membrane”
as §2

Experiment [6] deals with K. pneumoniae ATCC 700603. Description: BONCAT: HPG incorporation into newly synthesized proteins, flow cytometry. The experiment is classed as cell-based, Klebsiella pneumoniae. The conditions noted are these: compound at MIC, 10 min pre-incubation then 30 min HPG; untreated = 100%; mean, n ≥ 3. Here is the method:
as §3
as §4, with “Finally, each sample was washed with PBS once (centrifuged at 16,000 × g for 5 min) and resuspended in 1 mL PBS.” left out
An overnight culture of E. coli ATCC 25922, or of K. pneumoniae ATCC 700603, prepared as described above, was diluted to a final concentration of 5 × 10^6 CFU/mL and allowed to adjust for 30 min at 37 °C under shaking. Membrane permeabilization of bacteria was then assessed by incubating bacteria at 37 °C, in a final volume of 1 mL, with varying concentrations of each peptide or antibiotic used for the BONCAT assay. […] The fluorescence of untreated cells was used to establish the gating for positive PI-stained cells. […]

Experiment [7] relates to E. coli ATCC 25922. Description: Post-antibiotic effect (PAE), growth kinetics after washout. The class given is cell-based, Escherichia coli. The conditions noted are these: 30 min treatment at MIC, OD600 every hour for 18 h in MHB, mean ± SD, n = 3. On the procedure: An overnight culture of E. coli ATCC 25922, prepared as described above, was diluted to a final concentration of 5 × 10^6 CFU/mL and then incubated at 37 °C for 30 min in the presence or absence of each peptide or antibiotic at various concentrations, with a final volume of 1 mL. To measure the post-antibiotic effect (PAE) of antimicrobials, the compounds were removed from the supernatant by centrifugation (16,000 × g for 5 min) and bacteria were washed and resuspended in 1 mL of fresh supplemented MHB medium, to promote faster growth visible as increased absorbance. 200 μL of each sample was then transferred to a 96-well round-bottom microplate (Sarstedt, Milan, Italy), which was then placed in a Nanoquant Infinite-M200Pro plate reader with stable temperature at 37 °C. Each sample was surrounded by water-filled wells to reduce its own evaporation. Optical density at 600 nm was then recorded for each sample every hour for up to 18 h. PAE was calculated according to [Holfeld et al. (2018)] as the difference between the time needed for a cell culture incubated with an antibiotic substance to reach half-maximum absorbance of the control culture and the time that the control culture needed to reach half-maximum absorbance of the stationary phase. According to this definition, the PAE of each compound (expressed as time) was calculated based on the OD₆₀₀ value of its respective replicate, which corresponded to half of the maximum absorbance reached by the control culture in the stationary phase (at 18 h). The mean PAE values (PAE in hours) of each compound, were obtained by averaging the times from the three independent experiments.

The mark [8] stands for this setting: Mueller Hinton, 2,5x10^5 CFU/mL.

Converted amounts (≈) assume the structure as drawn. Read-outs that look alike come from different tables or passages of the source. Marks after values point to notes of the source that are not given here. Some results are limits rather than exact numbers.

For Colistin, the MIC in experiment [1] (setting [8]) is given as 1 µM; in experiment [1] (supplemented M9 medium, 5 × 10^6 CFU/mL, visual), 16 µM; against E. coli ATCC 25922 [3] (setting [8]), 0,5 * µM; in the experiment on E. coli ATCC 25922 [3] (Mueller Hinton, 5x10^6 CFU/mL, read-out: MIC), 4 µM; in the experiment on E. coli ATCC 25922 [3] (supplemented M9 medium, 5 × 10^6 CFU/mL, visual, read-out: MIC) it was 16 µM. Moreover, the “Fold increase in MIC, BONCAT conditions vs standard conditions” value in experiment [1] (supplemented M9 5×10^6 CFU/well vs MHB 2,5×10^5 CFU/well) turned out to be 16 fold. The “Permeabilized cells (PI+)” value in the experiment with E. coli ATCC 25922 [2] (colistin 0,5 µM (MIC) at 2,5x10^5 CFU/mL, 40 minutes of incubation) is “around 50%”. Moreover, the “Membrane permeabilization (% PI +cells)” value in the experiment on E. coli ATCC 25922 [2] is listed as 1%; with E. coli ATCC 25922 [2] (listed as Colistin) it was 1%; in the experiment on E. coli ATCC 25922 [2] (listed as colistin), “no membrane permeabilization”. In addition, in the experiment with E. coli ATCC 25922 [3] (MHB, 5×10^6 vs 2,5×10^5 CFU/well), the “Fold increase in MIC on 20-fold increase in cell density” value was 4-8 fold. The “Fold increase in MIC in M9 medium compared to MHB” value in the experiment on E. coli ATCC 25922 [3] (same bacterial concentration) is 2-4 fold. In addition, in the experiment on E. coli ATCC 25922 [4], the “Fluorescence Intensity (% of Control)” value is recorded as 87 % of Control. In addition, in the experiment with E. coli ATCC 25922 [4], the “Decrease in fluorescence compared to untreated bacteria” value is given as “nor decreased bacterial fluorescence”.

For the compound `CCO` [Ethanol], the “Membrane permeabilization (% PI +cells)” value came to 78% in the experiment with E. coli ATCC 25922 [2], 78% in the experiment on E. coli ATCC 25922 [2] (listed as EtOH) and 96% in experiment [5].

`CN(C)[C@@H]1C(O)=C(C(N)=O)C(=O)[C@@]2(O)C(O)=C3C(=O)c4c(O)cccc4[C@@](C)(O)[C@H]3C[C@@H]12` [TET, tetracycline]: the “Fluorescence Intensity (% of Control)” value in experiment [6] is 37 % of Control. In experiment [1] (Klebsiella pneumoniae, ATCC700603, supplemented M9 medium, 5 × 10^6 CFU/mL, visual), this compound showed an MIC of 32 µM (≈ 14.2 µg/mL). In addition, in experiment [5], the “Membrane permeabilization (% PI +cells)” value is reported as below 1%.

On to `CCn1cc(C(=O)O)c(=O)c2ccc(C)nc21` [NDX, Nalidixic Acid], for which the “Membrane permeabilization (% PI +cells)” value in the experiment with E. coli ATCC 25922 [2] is listed as below 1%. For the same compound, in the experiment with E. coli ATCC 25922 [7], the PAE worked out at 0.8 ± 0.4 h. In addition, the MIC with E. coli ATCC 25922 [3] (Escherichia coli, ATCC25922, 18 h, supplemented M9 medium, 5 × 10^6 CFU/mL, visual, read-out: MIC) turned out to be 16 µM (≈ 3.72 µg/mL). Moreover, in the experiment with E. coli ATCC 25922 [4], the “Fluorescence Intensity (% of Control)” value was 107 % of Control and the “Decrease in fluorescence compared to untreated bacteria” value is recorded as “did not affect fluorescence intensity”.
